Data reported in publication PMC10914731, “Homo-BacPROTAC-induced degradation of ClpC1 as a strategy against drug-resistant mycobacteria” (Nature Communications, 2024).
Values after ≈ are worked out from the molar mass of the structure shown. Values joined by “and” are separate entries in the source; they are usually repeats but may differ in a detail not shown here. Identical values can stand only once. Like-named read-outs stand apart in the source and are kept apart here. Where a SMILES comes first, the peptide text is derived from it. [ ]: non-standard residue; d: D form. Trp(1-(1,1-Me2-allyl)) = C=CC(C)(C)n1cc(C[C@H](N)C(=O)O)c2ccccc21; Ala(3R-Me,3-isobutenyl) = CC(C)=C[C@@H](C)[C@H](N)C(=O)O; NMeLeu(5-OH,4R) = CN[C@@H](C[C@@H](C)CO)C(=O)O; Phe(βR-OMe) = CO[C@H](c1ccccc1)[C@H](N)C(=O)O; NMeL = CN[C@@H](CC(C)C)C(=O)O

Experiments:
[1] = biological target: ClpC1 NTD protein (M. tuberculosis) (Mycobacterium tuberculosis, UniProt P9WPC9); assay: biochemical; assay type: binding
ClpC1 NTD protein (M. tuberculosis), sequence (P9WPC9 1-156, looked up, natural form): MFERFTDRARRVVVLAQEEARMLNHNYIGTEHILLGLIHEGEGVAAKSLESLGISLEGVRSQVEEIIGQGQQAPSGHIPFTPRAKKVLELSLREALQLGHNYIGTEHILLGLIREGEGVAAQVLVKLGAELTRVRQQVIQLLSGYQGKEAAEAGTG

in vitro = conditions: human
In short: (§1)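 Permeability across Caco-2 monolayers was measured in both directions, apical-to-basolateral and basolateral-to-apical, in 10^-6 cm s-1. Efflux ratio = P(B−A)/P(A−B). Intrinsic permeability is the mean of P(A−B) and P(B−A).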

Caco-2 monolayers = assay: in vitro; conditions: human, Caco-2
In short: as §1

[2] = assay type: in vitro ADME, Mice
In short: (§2)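 Compound at 1 µmol/l incubated with 0.5 mg/ml liver microsomes in 100 mM Tris-HCl pH 7.5, 6.5 mM MgCl2, 1 mM NADPH, 37 °C; acetonitrile-quenched at multiple time points, measured by HPLC-MS/MS. First-order half-lives converted to clearance as %Qh via well-stirred liver model.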

[3] = assay type: in vitro ADME, Rat
In short: as §2

[4] = Microsomal stability, human; assay type: in vitro ADME
In short: as §2

[5] = Hepatocyte stability, mice; assay type: in vitro ADME; conditions: mouse, pH 7.4
In short: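 Cryopreserved mouse hepatocytes (about 1 million cells/mL, pH 7.4, 50% species serum) incubated with 1 µM compound, DMSO <0.05%, at 37 °C for up to 6 h, sampled at 6 time points. Parent remaining measured by HPLC-MS/MS; half-life converted via well-stirred liver model to clearance as % Qh.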

[6] = assay type: in vitro ADME, Rat; conditions: rat, pH 7.4
[7] = assay type: in vitro ADME, Human; conditions: human, pH 7.4
[8] = system: M. tuberculosis H37Rv (ATCC 27294); assay: microbe, parasite or virus in culture; assay type: cell-based
Msm 607 = assay: microbe, parasite or virus in culture; assay type: cell-based
[9] = biological target: His6-tagged ClpC1-NTD substrate, M. smegmatis ClpC1P1P2 (UniProt A0R574+P9WPC9); assay: biochemical; assay type: biochemical; conditions: for DC50: Msm; for % Response / ClpC1-NTD peak area: Figure 4a source data, well replicates
His6-tagged ClpC1-NTD substrate, M. smegmatis ClpC1P1P2, sequence (P9WPC9 1-156, looked up, natural form): as above
His6-tagged ClpC1-NTD substrate, M. smegmatis ClpC1P1P2, sequence (A0R574 whole entry): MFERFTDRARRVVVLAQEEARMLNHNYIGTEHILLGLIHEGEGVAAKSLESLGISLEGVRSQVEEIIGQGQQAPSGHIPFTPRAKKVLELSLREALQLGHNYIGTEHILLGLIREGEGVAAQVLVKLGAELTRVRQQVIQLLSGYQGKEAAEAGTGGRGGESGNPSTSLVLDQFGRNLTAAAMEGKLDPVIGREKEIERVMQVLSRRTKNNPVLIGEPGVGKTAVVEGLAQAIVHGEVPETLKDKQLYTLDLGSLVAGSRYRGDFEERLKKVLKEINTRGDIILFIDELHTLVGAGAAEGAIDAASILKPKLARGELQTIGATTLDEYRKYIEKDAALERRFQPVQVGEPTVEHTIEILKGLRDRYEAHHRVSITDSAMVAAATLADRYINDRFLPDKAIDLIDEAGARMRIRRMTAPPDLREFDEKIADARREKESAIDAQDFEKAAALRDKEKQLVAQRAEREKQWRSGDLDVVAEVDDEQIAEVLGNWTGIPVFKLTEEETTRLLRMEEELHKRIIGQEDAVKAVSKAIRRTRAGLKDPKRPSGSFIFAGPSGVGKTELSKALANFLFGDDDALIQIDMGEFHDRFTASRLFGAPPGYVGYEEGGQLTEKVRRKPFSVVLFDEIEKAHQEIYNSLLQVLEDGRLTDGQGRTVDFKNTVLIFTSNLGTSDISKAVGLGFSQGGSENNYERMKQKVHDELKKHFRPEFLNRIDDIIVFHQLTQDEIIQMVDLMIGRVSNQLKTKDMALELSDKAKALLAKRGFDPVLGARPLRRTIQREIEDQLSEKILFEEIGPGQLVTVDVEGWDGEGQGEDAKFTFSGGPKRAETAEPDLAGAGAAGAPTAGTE

[10] = biological target: ClpC1-NTD substrate, M. tuberculosis ClpC1P1P2 (Mycobacterium tuberculosis, UniProt P9WPC9); assay: biochemical; assay type: biochemical; conditions: Mtb
ClpC1-NTD substrate, M. tuberculosis ClpC1P1P2, sequence (P9WPC5 whole entry): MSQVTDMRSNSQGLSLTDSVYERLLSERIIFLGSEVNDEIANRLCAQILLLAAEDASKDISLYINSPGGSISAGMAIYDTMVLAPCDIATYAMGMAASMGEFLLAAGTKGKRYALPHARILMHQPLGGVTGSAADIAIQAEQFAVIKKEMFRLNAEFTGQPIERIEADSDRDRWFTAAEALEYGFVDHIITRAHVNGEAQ
ClpC1-NTD substrate, M. tuberculosis ClpC1P1P2, sequence (P9WPC9 whole entry): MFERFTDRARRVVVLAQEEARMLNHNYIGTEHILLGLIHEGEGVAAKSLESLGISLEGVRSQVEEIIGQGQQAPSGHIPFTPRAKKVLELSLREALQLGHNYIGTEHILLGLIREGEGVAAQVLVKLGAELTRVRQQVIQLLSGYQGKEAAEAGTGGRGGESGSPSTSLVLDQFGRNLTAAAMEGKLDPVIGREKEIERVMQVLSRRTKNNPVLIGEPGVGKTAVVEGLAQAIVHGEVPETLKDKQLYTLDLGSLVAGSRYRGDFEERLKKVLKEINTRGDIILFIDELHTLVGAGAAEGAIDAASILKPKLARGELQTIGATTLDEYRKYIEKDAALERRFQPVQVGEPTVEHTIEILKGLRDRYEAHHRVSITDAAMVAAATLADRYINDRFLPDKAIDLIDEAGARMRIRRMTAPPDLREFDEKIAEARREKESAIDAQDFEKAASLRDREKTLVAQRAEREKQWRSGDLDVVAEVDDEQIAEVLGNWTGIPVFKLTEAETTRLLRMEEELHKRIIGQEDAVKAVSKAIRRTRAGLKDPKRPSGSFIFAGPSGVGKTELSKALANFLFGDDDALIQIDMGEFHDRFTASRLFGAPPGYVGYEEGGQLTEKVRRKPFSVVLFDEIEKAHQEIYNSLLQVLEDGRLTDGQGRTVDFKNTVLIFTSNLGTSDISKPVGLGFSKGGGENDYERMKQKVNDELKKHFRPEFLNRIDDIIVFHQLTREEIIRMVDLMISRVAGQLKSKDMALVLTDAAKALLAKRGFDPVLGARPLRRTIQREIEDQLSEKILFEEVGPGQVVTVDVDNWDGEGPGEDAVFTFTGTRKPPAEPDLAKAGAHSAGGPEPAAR
ClpC1-NTD substrate, M. tuberculosis ClpC1P1P2, sequence (P9WPC3 whole entry, further chain): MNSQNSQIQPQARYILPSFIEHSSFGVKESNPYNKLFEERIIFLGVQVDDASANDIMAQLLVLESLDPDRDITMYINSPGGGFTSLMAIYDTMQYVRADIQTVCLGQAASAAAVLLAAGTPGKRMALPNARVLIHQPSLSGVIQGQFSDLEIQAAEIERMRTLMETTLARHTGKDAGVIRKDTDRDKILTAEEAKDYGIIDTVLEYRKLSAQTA

[11] = biological target: endogenous ClpC1 in Msm #607 cells (Mycolicibacterium smegmatis, UniProt A0R574); assay type: cell-based, M. smegmatis
endogenous ClpC1 in Msm #607 cells, sequence (A0R574 whole entry): as the sequence (A0R574 whole entry) above

[12] = mean of the measurements, read-out: DC50, Mean

## C=CC(C)(C)n1cc(C[C@@H]2NC(=O)[C@H]([C@H](C)C=C(C)C)NC(=O)[C@H](CC(C)C)N(C)C(=O)[C@H](C(C)C)NC(=O)[C@H]([C@H](OC)c3ccccc3)NC(=O)[C@H](C)NC(=O)[C@H](C[C@@H](C)CO)N(C)C2=O)c2ccccc21 [dCymC] (cyclo([Trp(1-(1,1-Me2-allyl))][NMeLeu(5-OH,4R)]A[Phe(βR-OMe)]V[NMeL][Ala(3R-Me,3-isobutenyl)]))
[1]; SPR (Supplementary Table 1), read-out: KD ClpC1-NTD Mean ± SD
  Kd: 0.0011 ± 0.0004 µM
[1]; SPR, individual measurements (source data), read-out: KD ClpC1-NTD
  Kd: 2.02 nM and 1.58 nM and 1.15 nM (5×) and 0.995 nM and 1.06 nM (3×) and 1.21 nM (2×) and 1.23 nM (3×) and 0.859 nM and 1.01 nM (4×) and 1.13 nM (2×) and 1.16 nM (5×) and 0.401 nM and 0.981 nM and 0.95 nM and 1.03 nM and 0.866 nM and 1.14 nM (2×) and 1.54 nM and 0.99 nM and 1.26 nM and 1.53 nM (2×) and 1.07 nM (3×) and 1.05 nM (3×) and 1.09 nM (4×) and 1.84 nM and 1.39 nM (2×) and 1.44 nM and 1.47 nM (2×) and 0.934 nM and 1.1 nM (3×) and 0.723 nM and 2.22 nM and 0.892 nM and 0.91 nM and 1.75 nM (3×) and 0.741 nM and 0.702 nM and 1.25 nM (2×) and 0.729 nM and 0.721 nM and 1.67 nM and 1.63 nM and 1.37 nM and 1.92 nM and 1.99 nM and 1.17 nM and 1.08 nM (3×) and 0.583 nM and 1.11 nM (4×) and 0.666 nM and 0.718 nM and 0.833 nM and 0.74 nM and 0.783 nM and 0.822 nM and 0.734 nM and 0.671 nM and 1.6 nM and 1.52 nM (2×) and 1.45 nM (3×) and 1.33 nM (3×) and 1.28 nM (2×) and 1.31 nM and 0.952 nM (2×) and 0.854 nM and 1.2 nM (3×) and 0.728 nM and 0.717 nM and 1.59 nM and 1.51 nM and 0.903 nM and 0.9 nM (2×) and 0.985 nM and 1.18 nM and 0.911 nM and 0.904 nM and 1.12 nM and 0.85 nM and 0.908 nM and 1.02 nM and 3.37 nM and 0.912 nM and 0.781 nM and 0.973 nM and 0.999 nM and 0.958 nM and 0.76 nM and 0.886 nM and 0.843 nM and 1.04 nM (4×) and 1.24 nM and 0.917 nM and 0.907 nM and 0.838 nM
[1]; SPR, single independent measurements, read-out: KD ClpC1-NTD
  Kd: 1.15 nM (5×) and 1.06 nM (3×) and 1.21 nM (2×) and 1.23 nM (3×) and 1.01 nM (4×) and 1.13 nM (2×) and 1.16 nM (5×) and 1.14 nM (2×) and 1.53 nM (2×) and 1.07 nM (3×) and 1.05 nM (3×) and 1.09 nM (4×) and 1.39 nM (2×) and 1.47 nM (2×) and 1.1 nM (3×) and 1.75 nM (3×) and 1.25 nM (2×) and 1.08 nM (3×) and 1.11 nM (4×) and 1.52 nM (2×) and 1.45 nM (3×) and 1.33 nM (3×) and 1.28 nM (2×) and 0.952 nM (2×) and 1.2 nM (3×) and 0.9 nM (2×) and 1.04 nM (4×)
[1]; SPR, read-out: ClpC1-NTD KD Mean ± SD
  Kd: 0.0011 ± 0.0004 µM
In vitro; Caco-2
  efflux ratio: 3
In vitro; Caco-2, CACO permeability PEBA
  Papp B→A: 2.6 ×10⁻⁶ cm/s
In vitro; Caco-2, Caco-2 permeability P (A-B)
  Papp A→B: 1.3 ×10⁻⁶ cm/s
In vitro; Caco-2, Caco-2 permeability P (B-A)
  Papp B→A: 3.1 ×10⁻⁶ cm/s
Caco-2 monolayers
  Caco-2 Int. Perm: 2.2
  Influence of N-methylation on permeability: 1.6
[2]; Mouse
  Microsomal Stability Mouse QH: 56.100%
[2]; clearance in microsomes
  Microsomal Stability Mice: 56 %Qh
[3]; Rat
  Microsomal Stability Rat QH: 38.300%
[3]; clearance in microsomes
  Microsomal Stability Rat: 38 %Qh
[4]; Human
  Microsomal Stability Human QH: 65.700%
[4]; clearance in microsomes
  Microsomal Stability Human: 66 %Qh
[5]
  Hepatocyte Mice: 46 %Qh
[6]
  Hepatocyte Rat: 55 %Qh
  Hepatocyte Stability Rat QH: 55.000%
[7]
  Hepatocyte Human: 36 %Qh
  Hepatocyte Stability Human QH: 38.000%
[8]; Mycobacterium tuberculosis, M. tuberculosis H37Rv strain, read-out: MIC Mtb H37Rv Mean ± SD
  MIC: 0.4 ± 0.1 µM (≈ 0.405 µg/mL)
[8]; Mycobacterium tuberculosis, Mtb H37Rv (Supplementary Table 2), read-out: MIC Mtb
  MIC: 0.4 ± 0.1 µM (≈ 0.405 µg/mL)
[8]; Mycobacterium tuberculosis, individual measurements (source data), read-out: Mtb MIC
  MIC: 0.39 µM (≈ 0.394 µg/mL)
[8]; Mycobacterium tuberculosis, single determinations, read-out: Mtb MIC
  MIC: 0.39 µM (≈ 0.394 µg/mL)
[8]; individual measurements (source data), read-out: Mtb MIC
  MIC: 0.390 µM and 0.600 µM and 0.300 µM
[8]; single determinations, read-out: Mtb MIC
  MIC: 0.600 µM and 0.300 µM
Msm 607; Mycolicibacterium smegmatis, 607, read-out: MIC Msm 607
  MIC: 2.8 ± 0.4 µM (≈ 2.83 µg/mL)
Msm 607; Mycolicibacterium smegmatis, 607, read-out: Msm 607 MIC, single determinations
  MIC: 3.12 µM (≈ 3.16 µg/mL)
Msm 607; single determinations
  Msm 607 MIC: 2.500 µM
[9]; Measurement 1-6, read-out: DC50, single measurements
  DC50: > 100 µM
[9]; [12]
  DC50: > 100 µM
[9]; cell-free, result in words
  degradation of the His6-tagged ClpC1-NTD substrate: did not cause any degradation
[9]; conc. 0.4 µM
  % Response: 106.994% and 100.864% and 100.549% and 126.212% and 118.079% and 125.703% and 101.139% and 105.018% and 104.304%
  ClpC1-NTD peak area: 974818 and 1343173 and 762481 and 700950 and 757234 and 818245 and 783567 and 770572 and 1135273
[9]; conc. 33.3 µM
  % Response: 107.525% and 103.829% and 103.089% and 121.205% and 120.164% and 127.4% and 120.436% and 100.085% and 97.8128%
  ClpC1-NTD peak area: 1099272 and 1301491 and 948418 and 890861 and 865884 and 830598 and 816002 and 754560 and 1171647
[9]; conc. 100.0 µM
  % Response: 99.5642% and 103.437% and 105.517% and 119.388% and 117.765% and 125.04% and 101.258% and 115.542% and 91.4636%
  ClpC1-NTD peak area: 1282982 and 1406378 and 1339163 and 984807 and 916165 and 1033433 and 896176 and 856679 and 1974349
[10]; Measurement 1-4, read-out: DC50, single measurements
  DC50: > 100 µM
[10]; [12]
  DC50: > 100 µM
[11]; 100 µM, Figure 5c, well replicates of 3 experiments
  ClpC1 peak area: 516046 and 317875 and 398263 and 302242 and 500156 and 40170.6 and 421518 and 401814 and 368135
[11]; Msm #607, 24 h, result in words
  intracellular degradation of ClpC1: did not induce degradation of ClpC1
